Data published in patent US4822774A, “Physiologically active peptide” (Eisai Co., Ltd., priority 1986, dated 1989).

Tested on: Muscle of Bronchus Removed from Guinea Pig
Conditions: guinea pig trachea, 6.5×10^-6 M histamine; samples at 10^-5 M; area value of VIP--NH2 taken as 100 %
Text: A. Determination on Relaxation of Muscle of Bronchus Removed from Guinea Pig
The juglar vein of a male guinea pig weighing 300 g or more is cut, causing the guinea pig to be bled to death. The guinea pig undergoes thoracotomy. Immediately after the thoracotomy, 3 cm of the trachea is taken out. The trachea is immediately put in a Krebs solution. It is then cut into seven equal rings, and the cartilages are connected to one another with a cotton yarn to form a chain. Subsequently, the smooth muscle parts and cartilages opposite them are cut, so that the smooth muscle parts can be connected to one another. The preparation thus prepared is placed in an isothermic glass cell having an internal capacity of about 7 ml and suspended from above. The lower part of the preparation is fixed, while the upper part is connected to an isometric transducer, to which 0.5 g of a load has been applied, in order to determine the relaxation reaction. Sufficient amounts of 95 % oxygen and 5 % carbon dioxide gas are blown into the preparation. Further, a Krebs solution of 37° C. containing 6.5×10^-6 M histamine is dropped on the preparation from above at a flow rate of 3.3 ml/min. The relaxation reaction takes place to an extent proportional to the amount of a sample added to the dropped solution. By utilizing this relationship, the relaxation activity against bronchial smooth muscle with respect to the substance of the present invention is compared with that of VIP--NH2. VIP--NH2 is used at a concentration of 10^-5 M and dropped in amounts of 40 μl and 80 μl. The substance of the present invention is also used at a concentration of 10^- 5 M and dropped in amounts of 10 μl and 20 μl. The value of the area (height×time) in relaxation of each case is determined. The specific activities are obtained by taking the area value of VIP--NH2 as 100 % and determining the relative ratio of the area value of each use. Thus, the relaxation reactions are compared by the four-point assay method, with respect to the above-mentioned determination method, reference may be made to the following articles (e) and (f): […]

| Compound | A: specific activity (%) obtained by method A (relaxation of bronchial smooth muscle, area value relative to VIP-NH2) [%] |
| --- | --- |
| CC[C@H](C)[C@H](NC(=O)[C@H](CO)NC(=O)[C@H](CC(N)=O)NC(=O)[C@H](CC(C)C)NC(=O)[C@H](Cc1ccc(O)cc1)NC(=O)[C@H](CCCCN)NC(=O)[C@H](CCCCN)NC(=O)[C@@H](NC(=O)[C@H](C)NC(=O)[C@H](CCSC)NC(=O)[C@H](CCC(N)=O)NC(=O)[C@H](CCCCN)NC(=O)[C@H](CCCNC(=N)N)NC(=O)[C@H](CC(C)C)NC(=O)[C@H](CCCNC(=N)N)NC(=O)[C@@H](NC(=O)[C@H](Cc1ccc(O)cc1)NC(=O)[C@H](CC(N)=O)NC(=O)[C@H](CC(=O)O)NC(=O)[C@@H](NC(=O)[C@H](Cc1ccccc1)NC(=O)[C@@H](NC(=O)[C@H](C)NC(=O)[C@H](CC(=O)O)NC(=O)[C@H](CO)NC(=O)[C@@H](N)Cc1c[nH]cn1)C(C)C)[C@@H](C)O)[C@@H](C)O)C(C)C)C(=O)N[C@@H](CC(C)C)C(=O)N[C@@H](CC(N)=O)C(=O)O [VIP - OH] | 60 |
| CC[C@H](C)[C@H](NC(=O)[C@H](CO)NC(=O)[C@H](CC(N)=O)NC(=O)[C@H](CC(C)C)NC(=O)[C@H](Cc1ccc(O)cc1)NC(=O)[C@H](CCCCN)NC(=O)[C@H](CCCCN)NC(=O)[C@@H](NC(=O)[C@H](C)NC(=O)[C@H](CCSC)NC(=O)[C@H](CCC(N)=O)NC(=O)[C@H](CCCCN)NC(=O)[C@H](CCCNC(=N)N)NC(=O)[C@H](CC(C)C)NC(=O)[C@H](CCCNC(=N)N)NC(=O)[C@@H](NC(=O)[C@H](Cc1ccc(O)cc1)NC(=O)[C@H](CC(N)=O)NC(=O)[C@H](CC(=O)O)NC(=O)[C@@H](NC(=O)[C@H](Cc1ccccc1)NC(=O)[C@@H](NC(=O)[C@H](C)NC(=O)[C@H](CC(=O)O)NC(=O)[C@H](CO)NC(=O)[C@@H](N)Cc1c[nH]cn1)C(C)C)[C@@H](C)O)[C@@H](C)O)C(C)C)C(=O)N[C@@H](CC(C)C)C(=O)N[C@@H](CC(N)=O)C(=O)NCC(=O)N[C@@H](CCCCN)C(=O)O [X=Met Y=Lys--OH] | 300 |
| CC[C@H](C)[C@H](NC(=O)[C@H](CO)NC(=O)[C@H](CC(N)=O)NC(=O)[C@H](CC(C)C)NC(=O)[C@H](Cc1ccc(O)cc1)NC(=O)[C@H](CCCCN)NC(=O)[C@H](CCCCN)NC(=O)[C@@H](NC(=O)[C@H](C)NC(=O)[C@H](CCSC)NC(=O)[C@H](CCC(N)=O)NC(=O)[C@H](CCCCN)NC(=O)[C@H](CCCNC(=N)N)NC(=O)[C@H](CC(C)C)NC(=O)[C@H](CCCNC(=N)N)NC(=O)[C@@H](NC(=O)[C@H](Cc1ccc(O)cc1)NC(=O)[C@H](CC(N)=O)NC(=O)[C@H](CC(=O)O)NC(=O)[C@@H](NC(=O)[C@H](Cc1ccccc1)NC(=O)[C@@H](NC(=O)[C@H](C)NC(=O)[C@H](CC(=O)O)NC(=O)[C@H](CO)NC(=O)[C@@H](N)Cc1c[nH]cn1)C(C)C)[C@@H](C)O)[C@@H](C)O)C(C)C)C(=O)N[C@@H](CC(C)C)C(=O)N[C@@H](CC(N)=O)C(N)=O [VIP - NH2] | 100 |
